Patent publication EP4759807A1, “PROTEOLYSIS TARGETING CHIMERA COMPOUND FOR DEGRADING IRAK4 AND USE THEREOF” (Shenzhen Zhongge Biological Technology Co., Ltd., priority 2023, dated 2025)

Biological target: T1, IRAK4 (Homo sapiens, UniProt Q9NWZ3)
T1 sequence (Q9NWZ3 1-460): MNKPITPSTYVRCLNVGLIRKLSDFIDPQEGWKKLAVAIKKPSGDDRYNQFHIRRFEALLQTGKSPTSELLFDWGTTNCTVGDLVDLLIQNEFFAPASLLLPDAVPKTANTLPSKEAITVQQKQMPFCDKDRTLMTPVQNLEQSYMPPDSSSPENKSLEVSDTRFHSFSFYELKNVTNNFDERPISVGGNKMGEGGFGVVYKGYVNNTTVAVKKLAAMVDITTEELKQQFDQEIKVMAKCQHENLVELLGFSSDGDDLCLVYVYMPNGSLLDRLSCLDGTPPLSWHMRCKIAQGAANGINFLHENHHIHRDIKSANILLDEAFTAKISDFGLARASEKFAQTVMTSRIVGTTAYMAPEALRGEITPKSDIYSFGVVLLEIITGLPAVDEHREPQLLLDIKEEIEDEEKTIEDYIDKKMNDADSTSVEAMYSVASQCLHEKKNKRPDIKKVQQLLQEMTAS
Assay: WB detection of proteolysis (Western Blot, THP-1 cells)
Type: cell-based
Settings: Western Blot, THP-1 cells, 24 h; for DC50: read-out: DC50; for Dmax: read-out: Dmax
Protocol: The degradation level of IRAK4 in THP-1 cells was detected by Western Blot technology. […] 1000X gradient dilution stock of the compound was prepared, with the highest concentration set at 300 µM. The dilution was carried out using DMSO in a 1:3 dilution factor, yielding a total of 9 concentrations. 1000X gradient dilutions of the compound were added to a 12-well plate, with 1 µL per well. Incubation was performed under conditions of 37°C and 5% CO2 for 24 h, and the cells were collected into 2 mL of centrifuge tubes and centrifuged at 5000 rpm for 5 min, and the supernatant was removed. 100 µL of RIPA lysis buffer (Beyotime, P0013C) was added and mixed uniformly, then the cells were lysed on ice for 10 min, centrifuged at 4°C at 14000 rpm for 10 min, and the supernatant was collected. Protein content was determined with BCA (Solarbio, PC0020-10*50T). 75 µL of the supernatant was taken, and 25 µL of NuPAGE LDS Sample Buffer (4X) (Thermo B0007) was added to each tube (5% β-mercaptoethanol was added before use) to prepare samples, and the samples were boiled in a metal bath at 100°C for 5 min. […] 1x NuPAGE™ MOPS SDS electrophoresis buffer (20X) (Invitrogen, NP0001) was prepared, and the electrophoresis instrument was set to a constant current of 300 mA for 100 min, and the protein was transferred to a PVDF membrane (Millipore, IPVH00010). […] The membrane was washed three times with 1x TBST (Elabscience E-BC-R335) the next day, each time for 5 min. […] The membrane was washed three times with TBST, each time for 5 min. The Odyssey imaging system Li-cor Odyssey CLx was used to detect signals and analyze data. GraphPad (Prism 9.3) software was used to perform analysis for data, and non-linear fitting (non-liner inhibitor (Bell-shaped)) and four parameters (4 parameter) were used, and the parameters was as follows: Span1 = Plateau1−Dip [formula] Span2 = Plateau2−Dip [formula] Section1 = Span1/(1+10^(∧)((LogEC50_1−X)*nH1)) [formula] Section2 = Span2/(1+10^(∧)((X−LogEC50_2)*nH2)) [formula]
The equation was as follows: Y=Dip+Section1+Section2.

Row | SMILES | DC50 [nM] | Dmax [%]
1 | Cn1c(=O)n(C2CCC(=O)NC2=O)c2cccc(N3CCCN(C[C@H]4CC[C@H](n5cc(-n6cc(-c7ccc8cc(C(N)=O)cnn78)nn6)c(C(F)F)n5)CC4)CC3)c21 (relative stereo) [Example 289, 7-(1-(3-(difluoromethyl)-1-((1R,4R)-4-((4-(1-(2,6-dioxopiperidin-3-yl)-3-methyl-2-oxo-2,3-dihydro-1H-benzoimidazol-4-yl)-1,4-diazepan-1-yl)methyl)cyclohexyl)-1H-pyrazol-4-yl)-1H-1,2,3-triazol-4-yl)pyrrolo[1,2-b]pyridazine-3-carboxamide] | < 10 | < 60
2 | Cn1c(=O)n(C2CCC(=O)NC2=O)c2cccc(N3CCC(CN4CCC5(CCC(n6cc(-n7cc(-c8cnn9ccc(N%10CCC[C@H](O)C%10)nc89)nn7)c(C(F)F)n6)CC5)CC4)CC3)c21 (stereo partly drawn) [Example 290] | < 10 | > 70
3 | Cn1c(=O)n(C2CCC(=O)NC2=O)c2cccc(N3CCC(N4CCN(C[C@H]5CC[C@H](n6cc(-n7cc(-c8cnn9ccc(N%10CCO[C@@H](CO)C%10)nc89)nn7)c(C(F)F)n6)CC5)CC4)CC3)c21 (stereo partly drawn) [Example 175] | < 10 | > 70
4 | Cn1c(=O)n(C2CCC(=O)NC2=O)c2cccc(N3CCC(N4CCN(C[C@H]5CC[C@H](n6cc(-n7cc(-c8cnn9ccc(N%10CCC[C@H](O)C%10)nc89)nn7)c(C(F)F)n6)CC5)CC4)[C@@H](F)C3)c21 (stereo partly drawn) [Example 297, 3-(4-((3S)-4-(4-(((1R,4S)-4-(3-(difluoromethyl)-4-(4-(5-((S)-3-hydroxypiperidin-1-yl)pyrazolo[1,5-a]pyrimidin-3-yl)-1H-1,2,3-triazol-1-yl)-1H-pyrazol-1-yl)cyclohexyl)methyl)piperazin-1-yl)-3-fluoropiperidin-1-yl)-3-methyl-2-oxo-2,3-dihydro-1H-benzo[d]imidazol-1-yl)piperidine-2,6-dione] | < 10 | > 70
5 | Cn1nc(N2CCC(=O)NC2=O)c2ccc(N3CCC(N4CCN(C[C@H]5CC[C@H](n6cc(-n7cc(-c8cnn9ccc(N[C@@H]%10CCCC[C@@H]%10O)nc89)nn7)c(C(F)F)n6)CC5)CC4)CC3)cc21 [Example 161] | > 30 | < 60
6 | C[C@@H]1CN(C2CCN(c3cccc4c3n(C)c(=O)n4C3CCC(=O)NC3=O)CC2)CCN1C[C@H]1CC[C@H](n2cc(-n3cc(-c4cnn5ccc(N6CCC[C@H](O)C6)nc45)nn3)c(C(F)F)n2)CC1 (stereo partly drawn) [Example 292] | < 10 | > 70
7 | Cn1nc(C2CCC(=O)NC2=O)c2cccc(N3CCC(N4CCN(C[C@H]5CC[C@H](n6cc(-n7cc(-c8cnn9ccc(N%10CCC[C@H](O)C%10)nc89)nn7)c(C(F)F)n6)CC5)CC4)CC3)c21 (stereo partly drawn) [Example 293] | < 10 | > 70
8 | C[C@H]1CN(C[C@H]2CC[C@H](n3cc(-n4cc(-c5cnn6ccc(N[C@@H]7CCCC[C@@H]7O)nc56)nn4)c(C(F)F)n3)CC2)CCN1C1CCN(c2cccc3c2n(C)c(=O)n3C2CCC(=O)NC2=O)CC1 (stereo partly drawn) [Example 166] | < 10 | > 70
9 | C[C@@H]1CN(C[C@H]2CC[C@H](n3cc(-n4cc(-c5cnn6ccc(N7CCC[C@H](O)C7)nc56)nn4)c(C(F)F)n3)CC2)CCN1C1CCN(c2cccc3c2n(C)c(=O)n3C2CCC(=O)NC2=O)CC1 (stereo partly drawn) [Example 294, 3-(4-(4-((R)-4-(((1R,4R)-4-(3-(difluoromethyl)-4-(4-(5-((S)-3-hydroxypiperidin-1-yl)pyrazolo[1,5-a]pyrimidin-3-yl)-1H-1,2,3-triazol-1-yl)-1H-pyrazol-1-yl)cyclohexyl)methyl)-2-methylpiperazin-1-yl)piperidin-1-yl)-3-methyl-2-oxo-2,3-dihydro-1H-benzo[d]imidazol-1-yl)piperidine-2,6-dione] | < 10 | > 70
